Data reported in patent publication US8709747B2, “Biphotonic photosensitizers, nanoparticles containing the same and their use as drugs” (Centre National de la Recherche Scientifique, priority 2009, dated 2014).

How the values were obtained:
[1] = Photophysical properties (absorption, emission, fluorescence) in solution or dispersion; assay type: physicochemical; conditions: for Φf (fluorescence quantum yield): relative to quinine in 0.5 M H2SO4; for Φ / εmax / λmax^abs / λmax^em / quantum yield for fluorescence: in ethanol; for quantum yield for fluorescence: orange emission
[2] = Two-photon absorption cross section; assay type: physicochemical; conditions: for two-photon absorption cross section: at 720 nm; for λmax^TPA / σ2^max: table titled in ethanol
[3] = Quantum yield for singlet oxygen generation; assay type: physicochemical; conditions: in toluene
[4] = spectral range of interest; Drobizhev et al.; cited from earlier work

CCCCC1(CCCC)c2cc(C#Cc3ccc(/C=C/c4ccc(N(CC)CCO)cc4)s3)ccc2-c2ccc(C#Cc3ccc(/C=C/c4ccc(N(CC)CCO)cc4)s3)cc21 [Photosensitizer 6a]
Stokes shift ([1]; AcOEt): 4605 cm⁻¹
knr (non-radiative decay rate) ([1]; AcOEt): 0.34 10^9 s^−1
kr (radiative decay rate) ([1]; AcOEt): 0.36 10^9 s^−1
r (fluorescence anisotropy) ([1]; AcOEt): 0.12
λabs ([1]; AcOEt): 435 nm
λem ([1]; AcOEt): 544 nm
τ ([1]; AcOEt): 1.42 ns
τo (radiative lifetime) ([1]; AcOEt): 2.77 ns
Φf (fluorescence quantum yield) ([1]; AcOEt): 0.51
Stokes shift ([1]; Acetone): 5950 cm⁻¹
knr (non-radiative decay rate) ([1]; Acetone): 0.89 10^9 s^−1
kr (radiative decay rate) ([1]; Acetone): 0.25 10^9 s^−1
r (fluorescence anisotropy) ([1]; Acetone): 0.13
λabs ([1]; Acetone): 437.5 nm
λem ([1]; Acetone): 591.5 nm
τ ([1]; Acetone): 0.88 ns
τo (radiative lifetime) ([1]; Acetone): 4.02 ns
Φf (fluorescence quantum yield) ([1]; Acetone): 0.22
Stokes shift ([1]; Bu2O): 2700 cm⁻¹
knr (non-radiative decay rate) ([1]; Bu2O): 0.45 10^9 s^−1
kr (radiative decay rate) ([1]; Bu2O): 0.56 10^9 s^−1
r (fluorescence anisotropy) ([1]; Bu2O): 0.19
λabs ([1]; Bu2O): 433.5 nm
λem ([1]; Bu2O): 491 nm
τ ([1]; Bu2O): 0.99 ns
τo (radiative lifetime) ([1]; Bu2O): 1.79 ns
Φf (fluorescence quantum yield) ([1]; Bu2O): 0.55
Stokes shift ([1]; CH3CN): 6355 cm⁻¹
knr (non-radiative decay rate) ([1]; CH3CN): 0.92 10^9 s^−1
kr (radiative decay rate) ([1]; CH3CN): 0.05 10^9 s^−1
r (fluorescence anisotropy) ([1]; CH3CN): 0.21
λabs ([1]; CH3CN): 436.5 nm
λem ([1]; CH3CN): 604 nm
τ ([1]; CH3CN): 1.03 ns
τo (radiative lifetime) ([1]; CH3CN): 19.99 ns
Φf (fluorescence quantum yield) ([1]; CH3CN): 0.052
Stokes shift ([1]; CHCl3): 4035 cm⁻¹
knr (non-radiative decay rate) ([1]; CHCl3): 0.43 10^9 s^−1
kr (radiative decay rate) ([1]; CHCl3): 0.39 10^9 s^−1
r (fluorescence anisotropy) ([1]; CHCl3): 0.15
λabs ([1]; CHCl3): 431.5 nm
λem ([1]; CHCl3): 522.5 nm
τ ([1]; CHCl3): 1.22 ns
τo (radiative lifetime) ([1]; CHCl3): 2.54 ns
Φf (fluorescence quantum yield) ([1]; CHCl3): 0.48
Stokes shift ([1]; DCM): 4870 cm⁻¹
knr (non-radiative decay rate) ([1]; DCM): 0.27 10^9 s^−1
kr (radiative decay rate) ([1]; DCM): 0.42 10^9 s^−1
r (fluorescence anisotropy) ([1]; DCM): 0.10
λabs ([1]; DCM): 433.5 nm
λem ([1]; DCM): 549.5 nm
τ ([1]; DCM): 1.43 ns
τo (radiative lifetime) ([1]; DCM): 2.35 ns
Φf (fluorescence quantum yield) ([1]; DCM): 0.61
Stokes shift ([1]; DMSO): 6090 cm⁻¹
knr (non-radiative decay rate) ([1]; DMSO): 1.94 10^9 s^−1
kr (radiative decay rate) ([1]; DMSO): 0.10 10^9 s^−1
r (fluorescence anisotropy) ([1]; DMSO): 0.28
λabs ([1]; DMSO): 448.5 nm
λem ([1]; DMSO): 617 nm
τ ([1]; DMSO): 0.49 ns
τo (radiative lifetime) ([1]; DMSO): 9.7 ns
Φf (fluorescence quantum yield) ([1]; DMSO): 0.051
Stokes shift ([1]; THF): 4865 cm⁻¹
knr (non-radiative decay rate) ([1]; THF): 0.32 10^9 s^−1
kr (radiative decay rate) ([1]; THF): 0.34 10^9 s^−1
r (fluorescence anisotropy) ([1]; THF): 0.12
λabs ([1]; THF): 437 nm
λem ([1]; THF): 555 nm
τ ([1]; THF): 1.51 ns
τo (radiative lifetime) ([1]; THF): 2.93 ns
Φf (fluorescence quantum yield) ([1]; THF): 0.51
Stokes shift ([1]; Toluene): 2650 cm⁻¹
knr (non-radiative decay rate) ([1]; Toluene): 0.56 10^9 s^−1
kr (radiative decay rate) ([1]; Toluene): 0.52 10^9 s^−1
r (fluorescence anisotropy) ([1]; Toluene): 0.16
λabs ([1]; Toluene): 436 nm
λem ([1]; Toluene): 493 nm
τ ([1]; Toluene): 0.93 ns
τo (radiative lifetime) ([1]; Toluene): 1.94 ns
Φf (fluorescence quantum yield) ([1]; Toluene): 0.48
Φ [1]: 0.65
εmax [1]: 1.04 10^5 M^−1cm^−1
λmax^abs [1]: 432 nm
λmax^em [1]: 561 nm
quantum yield for fluorescence [1]: 65%
two-photon absorption cross section [2]: 1340 GM
λmax^TPA [2]: 730 nm
σ2^max [2]: 1204 GM
quantum yield for singulet oxygen generation [3]: 22%

C1=Cc2nc1c(-c1ccccc1)c1ccc([nH]1)c(-c1ccccc1)c1nc(c(-c3ccccc3)c3ccc([nH]3)c2-c2ccccc2)C=C1 [tetraphenylporphine]
two-photon absorption (TPA) cross-section [4]: 15 GM

CCN(CCO)c1ccc(/C=C/c2ccc(C#Cc3ccc4c(c3)C(CCOCCOCCOC)(CCOCCOCCOC)c3cc(C#Cc5ccc(/C=C/c6ccc(N(CC)CCO)cc6)s5)ccc3-4)s2)cc1 [Photosensitizer 6b]
Φ [1]: 0.33
εmax [1]: 0.98 10^5 M^−1cm^−1
λmax^abs [1]: 434 nm
λmax^em [1]: 575 nm
quantum yield for fluorescence [1]: 65%
two-photon absorption cross section [2]: 1530 GM
λmax^TPA [2]: 730 nm
σ2^max [2]: 1530 GM
quantum yield for singulet oxygen generation [3]: 22%
